Experiments:
[1] = system: proteins of human liver microsomes (HLM); experiment: Covalent binding between reactive metabolites and proteins using human liver microsomes; assay type: in vitro ADME
Procedure: Assay for Covalent Binding Between Reactive Metabolites and Proteins Using Human Liver Microsomes
The objective of the described covalent binding assay is to determine the amount of covalent binding between reactive metabolites and proteins of human liver microsomes (HLM) per hour following incubation in the presence of an NADPH regenerating system. The measured covalent binding rate is expressed in pmol bound drug equivalent/mg protein/h. It is a well-known advantage if compounds have a low tendency to bind covalently to proteins.
The radiolabelled compounds (^3H or ^14C) were incubated at a concentration of 10 μM in a single 96 well plate with 1.0 mg/mL of human liver microsomes in 0.1 M phosphate buffer (pH 7.4). To this end, a volume of 2.5 μL 1 mM stock solution prepared in the respective solvent (ethanol) was added to a final volume of 250 μL. Incubations were performed in the absence or presence of the NADPH-regenerating system with glucose-6-phosphate dehydrogenase (20 IU/ml dehydrogenase, 25 μl with 11 mM NADP sodium salt, 100 mM glucose-6-phosphate disodium salt, 100 mM MgCl2 in 0.1 M Tris buffer, pH 7.4) and additionally in the absence or presence of 5 mM GSH to trap reactive intermediates. An initial blank value without NADPH without incubation was also determined to determine unspecific rapid binding. Reactions were initiated by addition of 25 μL of an NADPH-regenerating system and terminated after one hour by adding 200 μL of the incubation mixture on a multiscreen deep well solvinert 96 hydrophobic PTFE filter plate (Millipore, Zug, Switzerland) containing 260 μL of ice-cold acetonitrile. The precipitation of microsomal proteins was completed by shaking the plate at 600 rpm at a temperature of 15° C. for 15 min. Finally, the precipitated incubation was stored at 4° C. for 15 min in the fridge. Proteins and filtrates were separated by centrifugation at 1800 g for 20 min at 10° C. The protein pellet was washed to remove unspecific binding with 800 μL of methanol/0.1% sulfuric acid (v/v) by centrifugation at 1500 g, 10° C. and 2 min. The washing step was repeated six times. The washed protein pellet was redissolved by addition of 500 μL of aqueous 0.1% (w/v) NaOH/1% (w/v) SDS. The filter plate was shaken at 400 rpm for 45 min at 60° C. and centrifugated at 2000 g for 20 min at 35° C. This step was repeated once and the protein solutions were combined.
For the determination of total radioactivity, an aliquot of 400 μL protein solution was mixed with 4 mL of liquid scintillation cocktail (Irga Safe plus, Perkin Elmer, Zurich, Switzerland) and analyzed using a Tricarb 2300 TR liquid scintillation analyzer (Perkin Elmer) with luminescence correction and on-line quenching correction by means of an external standard (^133Ba). For the determination of total protein content, an aliquot of 20 μL protein solution was analyzed using the BCA protein assay kit (Perbio Science Switzerland SA, Lausanne, Switzerland). The amount of covalent binding to microsomal proteins was calculated as follows: Dividing the determined amount of bound drug equivalent with NADPH (background subtracted by the amount of bound drug equivalent without NADPH) by the calculated amount of protein of redissolved washed protein pellet in each well gives the amount of bound drug equivalent in pmol/mg protein per hour.

human ALX receptor = molecular target: T1, human ALX receptor (Homo sapiens, UniProt P25090); experiment: Intracellular calcium measurements (FLIPR), ALX receptor agonistic activity; assay type: cell-based; conditions: HEK293-hALXR-Ga16 cells, calcium flux, normalized to WKYMVm 10 nM; read-out: EC50 (agonistic activity with respect to the ALX receptor)
T1 construct: expressed in transfected cells; host or cells: HEK293 (HEK293-hALXR-Ga16)
T1 sequence (P25090 1-351): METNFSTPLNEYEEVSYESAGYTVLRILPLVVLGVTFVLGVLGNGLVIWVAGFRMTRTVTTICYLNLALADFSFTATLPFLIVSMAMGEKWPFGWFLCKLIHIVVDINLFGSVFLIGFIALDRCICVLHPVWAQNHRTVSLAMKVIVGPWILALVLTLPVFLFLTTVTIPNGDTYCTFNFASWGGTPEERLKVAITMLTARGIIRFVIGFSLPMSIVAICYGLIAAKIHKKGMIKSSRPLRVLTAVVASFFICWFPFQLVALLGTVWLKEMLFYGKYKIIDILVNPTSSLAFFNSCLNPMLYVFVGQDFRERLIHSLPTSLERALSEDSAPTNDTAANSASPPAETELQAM
Procedure: The ALX receptor agonistic activity of the compounds of formula (I) is determined in accordance with the following experimental method.
Intracellular Calcium Measurements:
Cells expressing recombinant human ALX receptor and the G-protein Ga16 (HEK293-hALXR-Ga16) were grown to 80% confluency in Growing Medium (GM). Cells were detached from culture dishes with a cell dissociation buffer (Invitrogen, 13151-014), and collected by centrifugation at 1′000 rpm at rt for 5 min in Assay Buffer (AB) (equal parts of Hank's BSS (Gibco, 14065-049) and DMEM without Phenol Red (Gibco, 11880-028)). After 60 min incubation at 37° C. under 5% CO2 in AB supplemented with 1 μM Fluo-4 (AM) (Invitrogen, F14202) and 20 mM HEPES (Gibco, 15630-056), the cells were washed and resuspended in AB. They were then seeded onto 384-well FLIPR assay plates (Greiner, 781091) at 50′000 cells in 70 μl per well and sedimented by centrifugation at 1′000 rpm for 1 min. Stock solutions of test compounds were made up at a concentration of 10 mM in DMSO, and serially diluted in AB to concentrations required for activation dose response curves. WKYMVm (Phoenix Peptides) was used as a reference agonist. A FLIPR Tetra instrument (Molecular Devices) was operated according to the manufacturer's standard instructions, adding 4 μl of test compound dissolved at 10 mM in DMSO and diluted prior to the experiment in assay buffer to obtain the desired final concentration. Changes in fluorescence were monitored before and after the addition of test compounds at lex=488 nm and lem=540 nm. Emission peak values above base level after compounds addition were exported after base line subtraction. Values were normalized to high-level control (WKYMVm compound, 10 nM final concentration) after subtraction of the base line value (AB addition).

Covalent binding profile compared to compounds of WO 2009/077990 ([1]; in words, versus examples 18 and 75 of WO 2009/077990): superior covalent binding profile
Covalent binding, HLM with NADPH and GSH ([1]; tritiated compound 10 μM, 1.0 mg/mL HLM, 1 h, with NADPH and 5 mM GSH): 28 pmol/mg protein per hour
Covalent binding, HLM with NADPH ([1]; tritiated compound 10 μM, 1.0 mg/mL HLM, 1 h, with NADPH-regenerating system): 22 pmol/mg protein per hour
Covalent binding, HLM without NADPH ([1]; tritiated compound 10 μM, 1.0 mg/mL HLM, 1 h, without NADPH): 3 pmol/mg protein per hour
Covalent binding, HLM with NADPH (background corrected as described above) [amount of bound drug equivalent] ([1]; tritiated compound 10 μM, 1.0 mg/mL HLM, 1 h, value without NADPH subtracted): 19 pmol/mg protein per hour
EC50 (human ALX receptor): 2.4 nM
SMILES: Cc1cccc(-c2oc(C)nc2C(=O)Nc2cnn(Cc3nc(C(C)(F)F)co3)n2)c1 [Example 31, 2-Methyl-5-m-tolyl-oxazole-4-carboxylic acid {2-[4-(1,1-difluoro-ethyl)-oxazol-2-ylmethyl]-2H-[1,2,3]triazol-4-yl}-amide]
